Assay results as given in the supplement of paper PMC13380429.

Legend:
Settings in all cases: 72 h
Calu-3 [1] = assay: cell viability relative to DMSO; higher = less toxic
HepG2 [2] = assay: as above
Caco-2 [3] = assay: as above
Vero E6 [4] = assay: as above
Calu-3 [5] = assay: relative viability EC50 (midpoint between 100% and the lowest measured viability); higher = less toxic
HepG2 [6] = assay: as above
Caco-2 [7] = assay: as above
Vero E6 [8] = assay: as above
Calu-3 [9] = assay: drug sensitivity score (DSS) for viability; higher = more toxic; extreme values may be limits of the assay
HepG2 [10] = assay: as above
Caco-2 [11] = assay: as above
Vero E6 [12] = assay: as above
U2OS [13] = assay: cell viability relative to DMSO; higher = less toxic
U2OS [14] = assay: relative viability EC50 (midpoint between 100% and the lowest measured viability); higher = less toxic
U2OS [15] = assay: drug sensitivity score (DSS) for viability; higher = more toxic; extreme values may be limits of the assay

Row | SMILES | cell viability (Calu-3 [1]; 1 nM) | cell viability (Calu-3 [1]; 10 nM) | cell viability (Calu-3 [1]; 100 nM) | cell viability (Calu-3 [1]; 1000 nM) | cell viability (Calu-3 [1]; 10000 nM) | cell viability (HepG2 [2]; 1 nM) | cell viability (HepG2 [2]; 10 nM) | cell viability (HepG2 [2]; 100 nM) | cell viability (HepG2 [2]; 1000 nM) | cell viability (HepG2 [2]; 10000 nM) | cell viability (Caco-2 [3]; 1 nM) | cell viability (Caco-2 [3]; 10 nM) | cell viability (Caco-2 [3]; 100 nM) | cell viability (Caco-2 [3]; 1000 nM) | cell viability (Caco-2 [3]; 10000 nM) | cell viability (Vero E6 [4]; 1 nM) | cell viability (Vero E6 [4]; 10 nM) | cell viability (Vero E6 [4]; 100 nM) | cell viability (Vero E6 [4]; 1000 nM) | cell viability (Vero E6 [4]; 10000 nM) | relative viability EC50 (Calu-3 [5]) | relative viability EC50 (HepG2 [6]) | relative viability EC50 (Caco-2 [7]) | relative viability EC50 (Vero E6 [8]) | drug sensitivity score (Calu-3 [9]) | drug sensitivity score (HepG2 [10]) | drug sensitivity score (Caco-2 [11]) | drug sensitivity score (Vero E6 [12]) | cell viability (U2OS [13]; 1 nM) | cell viability (U2OS [13]; 10 nM) | cell viability (U2OS [13]; 100 nM) | cell viability (U2OS [13]; 1000 nM) | cell viability (U2OS [13]; 10000 nM) | relative viability EC50 (U2OS [14]) | drug sensitivity score (U2OS [15])
1 | CC(C)(C)C(=O)C(Oc1ccc(Cl)cc1)n1ccnc1 (stereo not drawn) [climbazole] | 94.5% | 102% | 98.3% | 94.7% | 101% | 113% | 104% | 93.8% | 107% | 102% | 108% | 100% | 104% | 97% | 98.2% | 96.6% | 101% | 98.1% | 92.2% | 97.1% | > 10 µM | > 10 µM | > 10 µM | > 10 µM | 0 | 0 | 0 | 0 | – | – | – | – | – | – | –
2 | CC(C)(N)c1cc(C(=O)N[C@@H]2CCc3ccc(Oc4ccnc5c4CCC(=O)N5)cc3C2)cc(C(F)(F)F)c1 [ML786] | – | – | – | – | – | 99.2% | 110% | 62.4% | 31.1% | 6.8% | 108% | 92.7% | 104% | 90.8% | 68.5% | 106% | 105% | 112% | 99% | 33.5% | – | 0.221 µM | – | 3.06 µM | – | 17.5 | 2.7 | 3.8 | 101% | 98.6% | 100% | 82.4% | 9.6% | 1.76 µM | 7.9
3 | CC(C)[C@@H](C)/C=C/[C@@H](C)[C@H]1CC[C@H]2C3=CC=C4C[C@@H](O)CC[C@]4(C)[C@H]3CC[C@]12C [ergosterol] | – | – | – | – | – | 92% | 102% | 96.5% | 104% | 95% | – | – | – | – | – | 95.7% | 103% | 94.7% | 102% | 95.5% | – | > 10 µM | – | > 10 µM | – | 0 | – | 0 | 103% | 96.7% | 97.8% | 94.7% | 102% | > 10 µM | 0
4 | CS(=O)(=O)CCNCc1nc(-c2ccc3ncnc(Nc4ccc(OCc5cccc(F)c5)c(Cl)c4)c3c2)cs1 | – | – | – | – | – | 106% | 111% | 93.5% | 102% | 104% | 97.1% | 97.5% | 90.5% | 80.8% | 73.1% | 95% | 98.3% | 93.3% | 79% | 72.5% | – | > 10 µM | – | – | – | 0 | 3.5 | 3.7 | 99.9% | 100% | 96.7% | 94.2% | 89.8% | > 10 µM | 0
5 | O=C(Nc1ccc(CN2CCOCC2)cc1)c1ccc(-c2cccc(Cl)c2)o1 | 98.3% | 95.4% | 97.3% | 97.8% | 91% | 107% | 104% | 97.8% | 93.7% | 99.5% | 110% | 102% | 99.9% | 104% | 95.7% | 100% | 100% | 102% | 99.4% | 102% | > 10 µM | > 10 µM | > 10 µM | > 10 µM | 0 | 0 | 0 | 0 | – | – | – | – | – | – | –
6 | CC1(C)CN(C(=O)c2ccc(-c3cccc4nc(NC(=O)C5CC5)nn34)cc2)C1 [solcitinib] | 106% | 94.5% | 102% | 101% | 92.2% | 105% | 112% | 99.6% | 98.4% | 96.6% | 99.1% | 99.8% | 92.9% | 87.3% | 81.7% | – | – | – | – | – | > 10 µM | > 10 µM | > 10 µM | – | 0 | 0 | 1.5 | – | 101% | 97.3% | 101% | 97.2% | 96.8% | > 10 µM | 0
7 | Oc1c(CN2CCCC2)cc(COCc2ccccc2)c2cccnc12 [UC-112] | 97.7% | 94.8% | 108% | 107% | 69.5% | 97.5% | 94.5% | 96.2% | 81.6% | 16.6% | 92.2% | 95.9% | 99.1% | 73% | 3.6% | 97.8% | 95.3% | 94% | 51.7% | 6.8% | – | 1.66 µM | 1.46 µM | 0.927 µM | 1 | 7.5 | 9.4 | 10.9 | 97.6% | 91.1% | 94% | 88.9% | 43.1% | 1.76 µM | 4.9
8 | O=S(=O)(O)c1cc(I)c(O)c2ncccc12 [chiniofon] | 98.2% | 102% | 94.6% | 95.9% | 93.6% | 111% | 102% | 104% | 102% | 99% | 107% | 101% | 95.4% | 104% | 94.8% | – | – | – | – | – | > 10 µM | > 10 µM | > 10 µM | – | 0 | 0 | 0 | – | – | – | – | – | – | – | –
9 | CN1c2ccccc2C(NCCCCCCC(=O)O)c2ccc(Cl)cc2S1(=O)=O (stereo not drawn) [tianeptine] | 100% | 103% | 92.4% | 102% | 102% | 100% | 108% | 96.2% | 108% | 98.6% | 103% | 92.7% | 107% | 94.8% | 92.8% | 104% | 102% | 101% | 94.1% | 88.1% | > 10 µM | > 10 µM | > 10 µM | > 10 µM | 0 | 0 | 0 | 0.3 | – | – | – | – | – | – | –
10 | CC(C)=CCc1c(O)cc(O)c2c(=O)c(O)c(-c3ccc(C(F)(F)F)cc3)oc12 [SNG-1153] | 114% | 89.6% | 108% | 99.3% | 68.1% | 97.3% | 98.8% | 106% | 103% | 40.2% | 92.1% | 93.8% | 98.1% | 95.8% | 40% | 100% | 94.3% | 100% | 93% | 50.7% | – | 3.43 µM | 2.6 µM | – | 1.5 | 3 | 3.9 | 3.8 | 96.7% | 94.7% | 94.5% | 99.9% | 43.2% | 3.14 µM | 3.1
11 | CN(C)c1ccc2c(c1)Sc1cc(N(C)C)ccc1N2 [leucomethylene-blue] | 101% | 102% | 102% | 109% | 9% | 93.1% | 93.2% | 93.6% | 76.4% | 7.7% | 95.2% | 99% | 102% | 94.1% | 23.1% | 95.8% | 97.1% | 93.9% | 85.2% | 45.9% | 3.65 µM | 1.53 µM | 2.54 µM | 1.55 µM | 4.4 | 8.7 | 5.2 | 4.9 | 99.5% | 94.1% | 97.2% | 99.6% | 56.9% | – | 2.2
12 | CN(C)C(=N)NC(=N)N [metformin] | 103% | 103% | 85.6% | 101% | 89.1% | 93.4% | 96.7% | 97.2% | 94.3% | 93% | 106% | 95.7% | 90.2% | 104% | 109% | 93.6% | 102% | 103% | 103% | 102% | > 10 µM | > 10 µM | > 10 µM | > 10 µM | 0 | 0 | 0 | 0 | – | – | – | – | – | – | –
13 | COc1cc(OC)cc(N(CCNC(C)C)c2ccc3ncc(-c4cnn(C)c4)nc3c2)c1 [erdafitinib] | 109% | 90.2% | 92.3% | 89.6% | 81.4% | 101% | 111% | 104% | 99.4% | 39.2% | 90.1% | 99.3% | 94% | 99.3% | 65.2% | 94% | 99% | 92% | 98.9% | 35.9% | > 10 µM | 3.09 µM | – | 3.04 µM | 1.3 | 3.4 | 1.7 | 3.6 | 101% | 97.3% | 91.5% | 84% | 53.1% | – | 4.1
14 | C[C@@H]1C/C=C/C=C/C=C/C=C/[C@H](O[C@@H]2O[C@H](C)[C@@H](O)[C@H](N)[C@@H]2O)C[C@@H]2O[C@](O)(C[C@@H](O)C[C@H]3O[C@@H]3/C=C/C(=O)O1)C[C@H](O)[C@H]2C(=O)O [natamycin] | – | – | – | – | – | 89.7% | 91.6% | 92.5% | 93.3% | 94.8% | 90.9% | 103% | 95.3% | 97.1% | 107% | 95.7% | 96.6% | 93.3% | 88.7% | 105% | – | > 10 µM | > 10 µM | > 10 µM | – | 0 | 0 | 0 | 95.9% | 97.5% | 94.3% | 102% | 108% | > 10 µM | 0
15 | COc1cc(NC(=O)c2ccccn2)ccc1Cl | – | – | – | – | – | 92.9% | 99.2% | 91% | 102% | 94.9% | 100% | 94.5% | 95.3% | 90.8% | 92.3% | 101% | 99% | 96.3% | 102% | 95.3% | – | > 10 µM | > 10 µM | > 10 µM | – | 0 | 0 | 0 | 100% | 95.3% | 101% | 99.4% | 96.3% | > 10 µM | 0
16 | C[C@H](Nc1cc2c(-c3ccc4c(c3)OCO4)noc2cn1)c1ccccc1 [TC-S-7005] | 106% | 98% | 105% | 97.2% | 107% | 106% | 120% | 100% | 91.6% | 99% | 96.5% | 105% | 107% | 101% | 97.9% | 97.4% | 96.2% | 98.8% | 90.5% | 108% | > 10 µM | > 10 µM | > 10 µM | > 10 µM | 0 | 0 | 0 | 0 | – | – | – | – | – | – | –
